In BigSolDB 2.1:

O=C(Nc1ccc(F)cc1F)c1cccnc1Oc1cccc(C(F)(F)F)c1
solubility (mole fraction)
Conditions	278.15 K	283.15 K	288.15 K	293.15 K	298.15 K	303.15 K	308.15 K	313.15 K	318.15 K	323.15 K
in DMF	0.000523	0.000679	0.000847	0.00104	0.00127	0.00153	0.00182	0.00213	0.00255	0.00298
in ethanol	0.000244	0.000319	0.000425	0.000537	0.000683	0.000901	0.00111	0.00142	0.00176	0.00216
in ethylene glycol	1.42e-05	1.76e-05	2.25e-05	2.71e-05	3.28e-05	3.89e-05	4.62e-05	5.41e-05	6.34e-05	7.49e-05
in propylene glycol	4.63e-05	5.76e-05	7.29e-05	9.02e-05	0.000108	0.000129	0.000152	0.00018	0.000209	0.000245
in water	1.45e-07	2.02e-07	2.68e-07	3.33e-07	4.08e-07	4.98e-07	6.05e-07	7.25e-07	8.72e-07	1.04e-06
